Common to all, as to format: biochemical, Lactiplantibacillus plantarum
Assay [1] has as its system T1, β-galactosidase produced by L. plantarum LP-15.
T1 construct: gene lacL; native enzyme from solid-state fermentation extract
Kind of assay: o-nitrophenol release at […] nm, Lineweaver-Burk, […]. To be noted: optimal conditions (pH 6.5, 42 °C); 50 mM phosphate buffer; partially purified enzyme; read-out: Value/Range.

Assay [2] has as its target T1, β-galactosidase produced by L. plantarum LP-15. Description: product inhibition kinetics. To be noted: competitive, inhibited substrate not told, partially purified enzyme, read-out: Value/Range. From the text: product inhibition kinetics on β-galactosidase produced by L. plantarum LP-15
In assay [3] the test system is T1, β-galactosidase produced by L. plantarum LP-15. Kind of assay: initial rate kinetics; lactose read-out not told. To be noted: conditions not given; partially purified enzyme; read-out: Value/Range. From the text: initial rate kinetics; lactose read-out not told on β-galactosidase produced by L. plantarum LP-15

Molecules are shown by their SMILES.

For the compound `O=[N+]([O-])c1ccccc1O[C@@H]1O[C@H](CO)[C@H](O)[C@H](O)[C@H]1O` [ONPG, o-Nitrophenyl-β-D-galactopyranoside], in assay [1], the Km turned out to be 2.8 ± 0.1 mM.
With `OC[C@H]1OC(O)[C@H](O)[C@@H](O)[C@H]1O` (stereo partly drawn) [galactose], the Ki in assay [2] was 85 mM.
In the case of `OC[C@H]1O[C@@H](O[C@H]2[C@H](O)[C@@H](O)C(O)O[C@@H]2CO)[C@H](O)[C@@H](O)[C@H]1O` (stereo partly drawn) [lactose], the Km in assay [3] amounted to 18.5 ± 0.5 mM.

The values are drawn from publication PMC12739383, “Optimization of solid-state fermentation conditions for high β-galactosidase-producing lactic acid bacteria and its application in low-lactose dairy products” (Frontiers in Bioengineering and Biotechnology, 2025).
